Laboratory results published in paper PMC6886798, “Expression of myeloid Src-family kinases is associated with poor prognosis in AML and influences Flt3-ITD kinase inhibitor acquired resistance” (PLoS ONE, 2019).
Read-outs that look alike come from different tables or passages of the source.

Key:
HCK = molecular target: T1, HCK (Homo sapiens, UniProt P08631); test: KINOMEscan; format: binding; conditions: 1.0 µM
T1 construct: purchased Eurofins/DiscoverX KINOMEscan scanMAX

CDC2L5 = CDC2L5 (Homo sapiens, UniProt Q14004); conditions: 1.0 µM
Sequence of CDC2L5 (Q14004 whole entry): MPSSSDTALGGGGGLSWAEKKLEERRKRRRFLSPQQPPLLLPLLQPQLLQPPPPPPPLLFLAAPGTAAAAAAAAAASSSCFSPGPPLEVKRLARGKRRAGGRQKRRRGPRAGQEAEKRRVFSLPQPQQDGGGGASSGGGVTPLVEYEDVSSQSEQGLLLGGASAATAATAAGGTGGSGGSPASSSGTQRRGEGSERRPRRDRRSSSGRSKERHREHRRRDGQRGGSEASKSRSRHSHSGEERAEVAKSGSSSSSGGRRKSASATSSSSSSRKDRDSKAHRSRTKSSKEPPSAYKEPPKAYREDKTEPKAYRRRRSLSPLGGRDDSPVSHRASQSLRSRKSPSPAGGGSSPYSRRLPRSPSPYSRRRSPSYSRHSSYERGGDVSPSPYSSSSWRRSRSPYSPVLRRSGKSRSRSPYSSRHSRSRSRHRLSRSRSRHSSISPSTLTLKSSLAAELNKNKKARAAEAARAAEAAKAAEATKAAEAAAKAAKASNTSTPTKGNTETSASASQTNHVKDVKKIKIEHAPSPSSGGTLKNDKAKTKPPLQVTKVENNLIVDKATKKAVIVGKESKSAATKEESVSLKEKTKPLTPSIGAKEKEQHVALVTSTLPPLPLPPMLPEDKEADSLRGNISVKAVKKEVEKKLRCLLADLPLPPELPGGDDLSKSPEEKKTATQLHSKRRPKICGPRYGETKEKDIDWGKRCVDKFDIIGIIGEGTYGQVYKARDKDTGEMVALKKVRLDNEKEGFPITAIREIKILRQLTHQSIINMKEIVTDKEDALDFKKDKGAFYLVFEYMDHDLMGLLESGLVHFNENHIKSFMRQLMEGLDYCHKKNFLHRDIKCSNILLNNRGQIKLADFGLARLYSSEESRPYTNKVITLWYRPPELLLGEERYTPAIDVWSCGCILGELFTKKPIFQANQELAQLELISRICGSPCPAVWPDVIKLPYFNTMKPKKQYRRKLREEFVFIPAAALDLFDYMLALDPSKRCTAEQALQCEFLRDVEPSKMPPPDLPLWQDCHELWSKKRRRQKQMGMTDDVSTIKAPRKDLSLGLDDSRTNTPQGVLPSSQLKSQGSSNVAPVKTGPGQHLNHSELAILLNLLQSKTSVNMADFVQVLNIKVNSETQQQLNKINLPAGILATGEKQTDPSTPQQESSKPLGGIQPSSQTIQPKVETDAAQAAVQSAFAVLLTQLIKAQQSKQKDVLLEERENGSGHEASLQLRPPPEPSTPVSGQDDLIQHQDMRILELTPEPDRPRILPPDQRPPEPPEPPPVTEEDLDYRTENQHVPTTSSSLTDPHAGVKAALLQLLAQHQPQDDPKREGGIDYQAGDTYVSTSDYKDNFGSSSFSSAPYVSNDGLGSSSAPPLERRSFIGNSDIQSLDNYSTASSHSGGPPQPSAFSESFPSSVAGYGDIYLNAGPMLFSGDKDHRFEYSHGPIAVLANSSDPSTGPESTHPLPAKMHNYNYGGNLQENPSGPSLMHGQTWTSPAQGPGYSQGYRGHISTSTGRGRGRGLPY
Experimental: (§1) Kinase retention to the immobilized ligand is then measured using quantitative real-time PCR for each kinase-specific DNA barcode.

PKNB(M.tuberculosis) = PKNB(M.tuberculosis) (Mycobacterium tuberculosis, UniProt P9WI81); conditions: 1.0 µM
Sequence of PKNB(M.tuberculosis) (P9WI81 whole entry): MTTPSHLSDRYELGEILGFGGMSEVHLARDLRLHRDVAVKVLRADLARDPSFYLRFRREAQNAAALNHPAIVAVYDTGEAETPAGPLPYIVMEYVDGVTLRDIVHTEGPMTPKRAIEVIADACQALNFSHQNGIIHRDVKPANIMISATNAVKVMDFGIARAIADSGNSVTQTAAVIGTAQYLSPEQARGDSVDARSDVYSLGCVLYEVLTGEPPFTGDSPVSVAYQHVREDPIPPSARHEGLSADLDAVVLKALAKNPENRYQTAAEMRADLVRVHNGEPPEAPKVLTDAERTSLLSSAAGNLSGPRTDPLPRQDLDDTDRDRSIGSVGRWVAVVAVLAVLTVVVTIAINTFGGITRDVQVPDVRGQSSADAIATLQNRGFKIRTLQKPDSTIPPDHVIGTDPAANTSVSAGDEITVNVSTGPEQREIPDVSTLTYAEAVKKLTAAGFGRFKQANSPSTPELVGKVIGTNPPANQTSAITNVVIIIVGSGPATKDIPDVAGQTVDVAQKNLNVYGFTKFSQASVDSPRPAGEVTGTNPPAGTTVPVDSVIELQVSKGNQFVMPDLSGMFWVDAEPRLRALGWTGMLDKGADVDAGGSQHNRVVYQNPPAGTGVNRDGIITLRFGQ
Experimental: as §1

Fgr T338L = molecular target: T2, Fgr T338L (Homo sapiens, UniProt P09769, T334L); test: Z'-LYTE in vitro kinase assay; format: biochemical; conditions: read-out: A-419259 IC50, Fig 5B, ATP at Km, mean ± SE, three independent determinations
T2 construct: Recombinant near-full-length kinases, consisting of the SH2, SH3 and kinase domains plus the negative regulatory tail; made in house; host or cells: E. coli BL21Star (DE3), co-expressed with Csk and PTP1B
Experimental: (§5) Assays were performed in quadruplicate in 384-well low volume, non-binding, black polystyrene microplates (Corning) according to the manufacturer’s instructions. Briefly, this assay measures phosphorylation of the Tyr2 peptide substrate which is tagged with coumarin and fluorescein on its N- and C-termini, respectively, to form a FRET pair. After the kinase reaction, a development step involves site-specific proteolytic cleavage of the unphosphorylated but not the phosphorylated peptide. […] Kinase reactions were run in 50 mM HEPES, pH 7.5, 10 mM MgCl2, 1 mM EGTA, and 0.01% BRIJ-35 (buffer supplied by the manufacturer). […] Following incubation for 1 h at ambient temperature, reactions were quenched by addition of the development protease, and coumarin and fluorescein fluorescence were measured 1 h later on a Molecular Devices SpectraMax M5 plate reader. […] For experiments with inhibitors, compounds were preincubated with kinase for 30 min prior to initiation of the reaction by the addition of ATP.

[1] = tested on: TF-1/Flt3-ITD + Fgr cells; test: CellTiter-Blue cell viability; format: cell-based, human; conditions: Fig 3; Flt3-ITD: WT; SFK: Fgr; 72 hours; read-out: IC50, nM (growth inhibition)
Experimental: (§2) Full-length cDNA clones of each kinase were subcloned into the retroviral expression vectors pMSCV-neo or pMSCV-puro (Clontech). High-titer retroviral stocks were produced in 293T cells co-transfected with each pMSCV construct and an amphotropic packaging vector. TF-1 cells (10^6) were resuspended in 5.0 mL of undiluted viral supernatant and centrifuged at 1,000 × g for 4 h at 18 °C in the presence of 4 μg/mL Polybrene (Sigma-Aldrich) to enhance viral transduction. Forty-eight hours after infection, the cells began a two-week selection period with 400 μg/ml G-418 (neo vectors) or 3 μg/mL puromycin (puro vectors). Following selection, cells were maintained with 200 μg/ml G418 or 1 μg/mL puromycin. For double transduction experiments, TF-1 cells were first infected with the pMSCV-neo-Flt3-ITD virus, selected with G418, followed by the pMSCV-puro virus carrying Hck or Fgr and puromycin selection. All TF-1 cell populations that expressed Flt3-ITD (including inhibitor-resistant mutants) proliferated in a GM-CSF-independent manner, and were therefore subcultured in the absence of GM-CSF.
(§3) Cells were seeded at 10^5 per mL in the presence or absence of inhibitors with DMSO as carrier solvent (0.1% final). Cell viability was assessed using the CellTiter-Blue reagent according to the manufacturer’s instructions (Promega). Fluorescence intensity, which correlates directly with viable cell number, was measured using a SpectraMax M5 microplate reader. Each experiment included three technical replicates per condition, and each experiment was repeated at least three times.

[2] = tested on: TF-1/Flt3-ITD N676S + Hck cells; test: CellTiter-Blue cell viability; format: cell-based, human; conditions: S9 Fig, 48 h
Experimental: as §2, §3

[3] = tested on: TF-1/Flt3-ITD N676S + Fgr cells; test: CellTiter-Blue cell viability; format: cell-based, human; conditions: S9 Fig, 48 h
Experimental: as §2, §3

[4] = tested on: TF-1/FLT3-ITD + Fgr-T338L cells; test: CellTiter-Blue cell viability; format: cell-based, human
Experimental: as §2, §3

[5] = tested on: TF-1/FLT3-ITD + Fgr-T338M cells; test: CellTiter-Blue cell viability; format: cell-based, human
Experimental: as §2, §3

[6] = tested on: chemotherapy-resistant AML patient xenografts; parameters: method as in PMID 23596204; conditions: mice; cited from earlier work
MV4-11 cells (parent) = test: CellTiter-Blue cell viability; format: cell-based, human
Experimental: (§4) Gibco/ThermoFisher). Parental TF-1 cells also require recombinant human GM-CSF (1 ng/mL; ThermoFisher). MOLM13 and MOLM14 cells were obtained from Leibniz Institute Deutsche Sammlung von Mikroorganismen (DSMZ) and grown in RPMI 1640 medium containing 20% FBS and Antibiotic-Antimycotic. […] Cell viability was assessed using the CellTiter-Blue reagent according to the manufacturer’s instructions (Promega). Fluorescence intensity, which correlates directly with viable cell number, was measured using a SpectraMax M5 microplate reader. Each experiment included three technical replicates per condition, and each experiment was repeated at least three times.

MOLM14 cells (parent) = test: CellTiter-Blue cell viability; format: cell-based, human
Experimental: as §4

MOLM13 cells (parent) = test: CellTiter-Blue cell viability; format: cell-based, human
Experimental: as §4

LYN = molecular target: T3, LYN (Homo sapiens, UniProt P07948); test: KINOMEscan; format: binding; conditions: 1.0 µM
T3 construct: purchased Eurofins/DiscoverX KINOMEscan scanMAX
T3 sequence (P07948 whole entry): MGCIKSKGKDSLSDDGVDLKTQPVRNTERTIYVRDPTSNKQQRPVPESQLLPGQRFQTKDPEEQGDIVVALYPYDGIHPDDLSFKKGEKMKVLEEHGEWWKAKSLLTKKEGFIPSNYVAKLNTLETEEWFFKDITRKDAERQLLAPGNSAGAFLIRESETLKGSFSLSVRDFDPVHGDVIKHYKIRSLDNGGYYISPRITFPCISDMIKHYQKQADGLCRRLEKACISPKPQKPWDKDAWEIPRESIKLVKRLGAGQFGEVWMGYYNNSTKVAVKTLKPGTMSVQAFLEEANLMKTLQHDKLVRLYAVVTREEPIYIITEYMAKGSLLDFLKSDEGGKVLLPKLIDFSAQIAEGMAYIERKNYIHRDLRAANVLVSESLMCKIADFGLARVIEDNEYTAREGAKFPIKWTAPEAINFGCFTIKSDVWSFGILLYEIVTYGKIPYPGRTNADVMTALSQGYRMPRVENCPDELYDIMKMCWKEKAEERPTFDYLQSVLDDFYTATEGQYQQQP

Fgr T338F = molecular target: T4, Fgr T338F (Homo sapiens, UniProt P09769, T334F); test: Z'-LYTE in vitro kinase assay; format: biochemical
T4 construct: Recombinant near-full-length kinases, consisting of the SH2, SH3 and kinase domains plus the negative regulatory tail; made in house; host or cells: E. coli BL21Star (DE3), co-expressed with Csk and PTP1B
Experimental: as §5

Hck T338L = molecular target: T5, Hck T338L (Homo sapiens, UniProt P08631, T333L); test: Z'-LYTE in vitro kinase assay; format: biochemical
T5 construct: Recombinant near-full-length kinases, consisting of the SH2, SH3 and kinase domains plus the negative regulatory tail; made in house; host or cells: E. coli BL21Star (DE3), co-expressed with Csk and PTP1B
T5 sequence (P08631 78-526 T333L limits assumed): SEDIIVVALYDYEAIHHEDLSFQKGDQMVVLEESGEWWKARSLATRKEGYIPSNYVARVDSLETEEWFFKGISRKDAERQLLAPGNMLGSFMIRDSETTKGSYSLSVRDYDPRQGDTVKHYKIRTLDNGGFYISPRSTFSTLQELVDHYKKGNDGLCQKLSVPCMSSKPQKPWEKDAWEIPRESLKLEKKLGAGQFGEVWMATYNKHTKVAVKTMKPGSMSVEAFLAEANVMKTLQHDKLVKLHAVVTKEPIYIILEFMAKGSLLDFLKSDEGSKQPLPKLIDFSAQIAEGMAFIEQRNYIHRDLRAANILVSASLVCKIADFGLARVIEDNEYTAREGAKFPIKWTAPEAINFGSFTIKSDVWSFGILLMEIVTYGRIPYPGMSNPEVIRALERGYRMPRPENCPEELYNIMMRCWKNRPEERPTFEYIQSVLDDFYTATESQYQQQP

468 kinases = test: KINOMEscan scanMAX profile, overall selectivity; format: binding, human; conditions: 1 μM; 468 kinase targets
VEGFR2 = molecular target: T6, VEGFR2 (Homo sapiens, UniProt P35968); test: KINOMEscan; format: binding; conditions: 1.0 µM
T6 construct: DNA tag (qPCR barcode); purchased Eurofins/DiscoverX KINOMEscan scanMAX
T6 sequence (P35968 20-1356): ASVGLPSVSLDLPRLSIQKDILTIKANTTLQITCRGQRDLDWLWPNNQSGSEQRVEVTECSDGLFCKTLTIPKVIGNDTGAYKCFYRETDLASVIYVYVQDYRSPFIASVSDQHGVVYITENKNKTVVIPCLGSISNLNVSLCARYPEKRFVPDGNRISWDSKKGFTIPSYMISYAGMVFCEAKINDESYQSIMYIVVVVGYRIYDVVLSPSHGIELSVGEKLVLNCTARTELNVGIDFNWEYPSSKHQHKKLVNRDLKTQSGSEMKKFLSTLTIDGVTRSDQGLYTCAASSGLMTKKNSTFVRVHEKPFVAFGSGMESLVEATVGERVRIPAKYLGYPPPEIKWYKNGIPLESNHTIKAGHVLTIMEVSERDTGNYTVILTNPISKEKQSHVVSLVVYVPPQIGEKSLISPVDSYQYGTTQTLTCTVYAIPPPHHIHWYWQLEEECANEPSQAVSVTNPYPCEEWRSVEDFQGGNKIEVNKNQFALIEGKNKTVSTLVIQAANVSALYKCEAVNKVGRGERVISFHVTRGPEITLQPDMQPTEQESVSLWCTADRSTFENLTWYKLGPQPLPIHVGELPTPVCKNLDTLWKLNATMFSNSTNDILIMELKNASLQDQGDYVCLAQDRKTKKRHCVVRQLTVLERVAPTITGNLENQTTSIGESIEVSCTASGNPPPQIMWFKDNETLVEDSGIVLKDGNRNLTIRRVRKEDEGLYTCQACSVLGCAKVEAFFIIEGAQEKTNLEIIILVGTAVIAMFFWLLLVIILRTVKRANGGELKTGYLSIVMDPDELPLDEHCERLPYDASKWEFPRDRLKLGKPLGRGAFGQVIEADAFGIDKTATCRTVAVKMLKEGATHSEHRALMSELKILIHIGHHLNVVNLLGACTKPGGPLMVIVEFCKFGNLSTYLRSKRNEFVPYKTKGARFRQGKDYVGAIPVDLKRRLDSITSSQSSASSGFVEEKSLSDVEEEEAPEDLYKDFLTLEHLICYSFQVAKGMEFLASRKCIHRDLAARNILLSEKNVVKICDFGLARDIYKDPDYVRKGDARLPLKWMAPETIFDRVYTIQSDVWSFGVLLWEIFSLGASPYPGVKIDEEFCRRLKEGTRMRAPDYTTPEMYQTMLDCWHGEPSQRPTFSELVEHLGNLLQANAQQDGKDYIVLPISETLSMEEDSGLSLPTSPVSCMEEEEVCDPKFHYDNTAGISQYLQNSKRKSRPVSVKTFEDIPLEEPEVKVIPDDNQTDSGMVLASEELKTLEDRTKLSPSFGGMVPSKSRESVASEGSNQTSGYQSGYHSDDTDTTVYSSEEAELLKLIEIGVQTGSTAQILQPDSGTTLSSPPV

[7] = tested on: Flt3-ITD N676S in TF-1 cells; test: Flt3 immunoprecipitation, anti-phosphotyrosine immunoblot; format: cell-based, human; conditions: vs Flt3-ITD; overnight
Experimental: Immunoprecipitation reactions were incubated overnight at 4 °C.

Flt3-D835Y kinase domain = molecular target: T7, Flt3-D835Y kinase domain (Homo sapiens, UniProt P36888, D835Y); test: Z'-LYTE in vitro kinase assay; format: biochemical; conditions: Flt3 D835Y mutant
T7 construct: Recombinant purified Flt3 wild-type, Flt3-ITD and Flt3-D835Y kinase domains were purchased from ThermoFisher; purchased ThermoFisher
Experimental: as §5

Fgr T338M = molecular target: T8, Fgr T338M (Homo sapiens, UniProt P09769, T334M); test: Z'-LYTE in vitro kinase assay; format: biochemical
T8 construct: Recombinant near-full-length kinases, consisting of the SH2, SH3 and kinase domains plus the negative regulatory tail; made in house; host or cells: E. coli BL21Star (DE3), co-expressed with Csk and PTP1B
Experimental: as §5

[8] = read-out: A-419259 Sensitivity (IC50, nM) Initial, mean ± SE (n = 3)
[9] = read-out: A-419259 Sensitivity (IC50, nM) Post-holiday, after 4 weeks passage in the absence of inhibitor, mean ± SE (n = 3)

T1 sequence (P08631 whole entry): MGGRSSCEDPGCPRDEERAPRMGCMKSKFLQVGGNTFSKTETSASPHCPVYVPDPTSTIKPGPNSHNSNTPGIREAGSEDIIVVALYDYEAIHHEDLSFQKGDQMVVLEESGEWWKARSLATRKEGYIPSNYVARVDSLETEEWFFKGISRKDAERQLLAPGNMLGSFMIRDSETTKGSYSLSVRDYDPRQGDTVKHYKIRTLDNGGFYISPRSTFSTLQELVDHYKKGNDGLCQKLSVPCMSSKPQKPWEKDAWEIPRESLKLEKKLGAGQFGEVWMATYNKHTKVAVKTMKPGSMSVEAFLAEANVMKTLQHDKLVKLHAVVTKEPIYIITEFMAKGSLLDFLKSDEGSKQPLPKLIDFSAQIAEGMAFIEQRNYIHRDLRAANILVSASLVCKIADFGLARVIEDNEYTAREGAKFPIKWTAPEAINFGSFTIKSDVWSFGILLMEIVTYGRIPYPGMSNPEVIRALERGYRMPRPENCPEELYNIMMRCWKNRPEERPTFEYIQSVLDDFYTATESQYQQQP

## CN1CCN(C2CCC(n3cc(-c4ccc(Oc5ccccc5)cc4)c4c(N)ncnc43)CC2)CC1 (centres unmarked) [A-419259]
HCK
  % Control: 1.9%
CDC2L5
  % Control: 77%
PKNB(M.tuberculosis)
  % Control: 82%
Fgr T338L
  IC50: 218.4 ± 1.1 nM
[1]
  IC50: 22.6 nM
[2]
  IC50: 129 nM
[3]
  IC50: 173 nM
[4]; Fgr T338L as printed
  resistance to the inhibitor in cells: about 3 fold
[4]; Fig 6B, TF-1/FLT3-ITD + Fgr-T338L, 72 hours
  IC50: > 1000 nM
[5]
  resistance to the inhibitor in cells: about 3 fold
[6]
  effect on chemotherapy-resistant AML patient xenografts: completely eliminates
MV4-11 cells (parent); Fig 3A, 72 hours, read-out: IC50 (cell viability)
  IC50: 58 nM
MV4-11 cells (parent); read-out: A-419259 Sensitivity (IC50, nM) Initial, MV4-11 Parent, mean ± SE (n = 3)
  IC50: 28.3 ± 3.5 nM
MV4-11 cells (parent); read-out: A-419259 Sensitivity (IC50, nM) Post-holiday, MV4-11 Parent, after 4 weeks passage in the absence of inhibitor, mean ± SE (n = 3)
  IC50: 27.5 ± 4.3 nM
MOLM14 cells (parent); [8]
  IC50: 14.3 ± 1.5 nM
MOLM14 cells (parent); [9]
  IC50: 26.4 ± 7.7 nM
MOLM13 cells (parent); [8]
  IC50: 40.3 ± 9.9 nM
MOLM13 cells (parent); [9]
  IC50: 38.4 ± 0.9 nM
LYN
  % Control: 1.7%
Fgr T338F; Fgr gatekeeper phenylalanine substitution, vs wild-type
  resistance to A-419259: ~5 fold
Fgr T338F; read-out: A-419259 IC50, Fig 5B, Fgr T338F, ATP at Km, mean ± SE, three independent determinations
  IC50: 282.9 ± 1.1 nM
Hck T338L; Hck gatekeeper threonine to leucine, vs wild-type
  effect of substitution on kinase sensitivity to A-419259: without an effect
Hck T338L; read-out: A-419259 IC50, Fig 5B, Hck T338L, ATP at Km, mean ± SE, three independent determinations
  IC50: 41 ± 1 nM
468 kinases
  kinase interactions: 19
VEGFR2
  % Control: 24%
[7]
  sensitivity of phosphotyrosine content to A-419259: significantly reduced sensitivity
Flt3-D835Y kinase domain
  resistance to A-419259 in in vitro kinase assays: about 6 fold
Fgr T338M; Fgr gatekeeper methionine substitution, vs wild-type
  resistance to A-419259: 2.5 fold
Fgr T338M; read-out: A-419259 IC50, Fig 5B, Fgr T338M, ATP at Km, mean ± SE, three independent determinations
  IC50: 160.6 ± 1.1 nM
